# Molecular target: T1, SCAP (Cricetulus griseus, UniProt P97260)
# T1 construct: endogenous in cells; host or cells: CHO-K1 (membrane fraction extracted with 0.1% FOS-Choline 10)
# T1 sequence (P97260 1-1276): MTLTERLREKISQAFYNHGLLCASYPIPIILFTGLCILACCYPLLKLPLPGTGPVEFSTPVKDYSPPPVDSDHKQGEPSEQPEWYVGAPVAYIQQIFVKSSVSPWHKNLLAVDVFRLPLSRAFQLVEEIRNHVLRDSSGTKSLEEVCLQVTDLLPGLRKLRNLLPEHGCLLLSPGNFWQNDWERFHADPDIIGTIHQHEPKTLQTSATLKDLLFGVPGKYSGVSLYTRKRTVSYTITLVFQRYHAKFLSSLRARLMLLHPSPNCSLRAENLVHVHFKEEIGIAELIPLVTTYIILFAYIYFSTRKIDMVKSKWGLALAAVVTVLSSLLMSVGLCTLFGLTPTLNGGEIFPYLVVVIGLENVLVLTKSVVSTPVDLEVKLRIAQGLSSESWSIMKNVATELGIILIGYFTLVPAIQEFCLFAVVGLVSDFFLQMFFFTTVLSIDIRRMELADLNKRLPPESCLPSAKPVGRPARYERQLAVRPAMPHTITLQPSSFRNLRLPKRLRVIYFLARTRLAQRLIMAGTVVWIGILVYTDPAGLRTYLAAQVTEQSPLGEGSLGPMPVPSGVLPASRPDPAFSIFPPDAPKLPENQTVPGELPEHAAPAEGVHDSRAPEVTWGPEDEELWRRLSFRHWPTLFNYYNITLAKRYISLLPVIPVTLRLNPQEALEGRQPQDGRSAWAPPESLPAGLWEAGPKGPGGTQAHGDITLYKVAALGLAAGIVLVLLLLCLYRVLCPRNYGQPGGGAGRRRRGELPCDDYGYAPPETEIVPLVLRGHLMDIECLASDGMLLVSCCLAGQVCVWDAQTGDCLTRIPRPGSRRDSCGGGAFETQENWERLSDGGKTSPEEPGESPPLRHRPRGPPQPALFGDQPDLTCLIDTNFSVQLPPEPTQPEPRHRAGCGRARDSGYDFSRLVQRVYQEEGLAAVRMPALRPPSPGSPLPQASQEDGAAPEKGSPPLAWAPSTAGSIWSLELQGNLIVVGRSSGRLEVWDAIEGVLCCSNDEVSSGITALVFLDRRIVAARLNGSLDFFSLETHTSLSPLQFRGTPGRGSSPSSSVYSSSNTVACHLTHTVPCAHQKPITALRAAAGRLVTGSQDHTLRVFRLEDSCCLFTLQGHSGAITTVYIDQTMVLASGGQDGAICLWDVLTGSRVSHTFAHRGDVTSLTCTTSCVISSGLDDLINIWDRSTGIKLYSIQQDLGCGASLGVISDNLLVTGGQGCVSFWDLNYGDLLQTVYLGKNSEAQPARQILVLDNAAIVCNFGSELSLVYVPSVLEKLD
# Assay: Binding assay, biotinylated fatostatin on Neutravidine-agarose beads, CHO-K1 membrane extract
# Parameters: species or system Chinese hamster
# Conditions: not bound: SREBP-1, SREBP-2, ATF6
# From the text: The selective ER localization implies that fatostatin binds to a protein in the ER; the most likely candidate is SCAP, the target of cholesterol for the control of SREBP (Radhakrishnan et al., 2004). To test this hypothesis, proteins bound to a fatostatin-polyproline linker-biotin conjugate (FIG. 20A) (Sato et al., 2007) were purified from cell lysates and analyzed by western blots with antibodies against SCAP, SREBP-1, SREBP-2, and ATF6, an unrelated ER-bound transcription factor (Ye et al., 2000). […] The binding was lost upon addition of excess fatostatin, but not excess cholesterol (FIG. 20D), raising the possibility that fatostatin may interact with SCAP in a site distinct from that of cholesterol.
# Binding assay. Cell membrane fractions were prepared as described in Supplementary Methods. The membrane fraction was extracted with PBS containing 0.1% FOS-Choline 10 (Hampton Research). The extract was mixed with Neutravidine-agarose beads (10 μL) saturated with biotinylated fatostatin and incubated for 1 h. The bound proteins were washed four times with PBS containing 0.1% FOS-Choline 10, boiled in 25 μL of SDS sample buffer, and subjected to western blotting. For the competition assay, saturated amounts of cholesterol or fatostatin were added to the membrane extract before incubating with the beads.
structure (smiles),measurement,value
"CCCc1cc(-c2nc(-c3ccc(C)cc3)cs2)ccn1 [Compound 1, 2-propyl-4-(4-p-tolylthiazol-2-yl)pyridine]",binding to SCAP (western blot of bound proteins),bound to SCAP
